IC50 and Activity data for five molecules are collected here from ChEMBL document CHEMBL1137325, “Multitarget-directed drug design strategy: a novel molecule designed to block epidermal growth factor receptor (EGFR) and to exert proapoptotic effects” (J Med Chem, 2006).

As usually defined, the IC50 is the midpoint of a concentration-inhibition curve.

Calls of active or inactive are those of the source. No cut-off for these calls is given here.

Test [1] concerns the target Epidermal growth factor receptor (Homo sapiens, UniProt P00533). Put plainly: Inhibition of EGFR tyrosine kinase activity.
Test [2] relates to A-431. Put plainly: Antiproliferative activity against human A431 cells after 72 hrs by MTT assay. The note with it: A-431, 72 h.
The subject of test [3] is A-431. Put plainly: Induction of necrosis in human A431 cells measured as increase of LDH release. The test is classed as functional, cell-based. A general note: Release of lactate dehydrogenase indicates damage to the cell membrane.
Test [4] relates to A-431. Put plainly: Reversibility of antiproliferative activity against human A431 cells after recovery for 68 hrs by MTT assay. The note with it: A-431, 68 h. For orientation: Tetrazolium dyes change colour on reduction, which living cells bring about.
The subject of test [5] is A-431. The experiment in a line: Reversibility of antiproliferative activity against human A431 cells after recovery for 68 hrs in presence of 50 uM DTT by MTT assay. The note with it: A-431, 68 h.
The test system of test [6] is A-431. Put plainly: Reversibility of antiproliferative activity against human A431 cells after recovery for 68 hrs in presence of 100 uM DTT by MTT assay. The note with it: A-431, 68 h.
For test [7], the system named is A-431. The experiment in a line: Induction of apoptosis in human A431 cells measured as increase in DNA fragmentation. Type of test: functional, cell-based.

Sequence of Epidermal growth factor receptor (P00533 whole entry): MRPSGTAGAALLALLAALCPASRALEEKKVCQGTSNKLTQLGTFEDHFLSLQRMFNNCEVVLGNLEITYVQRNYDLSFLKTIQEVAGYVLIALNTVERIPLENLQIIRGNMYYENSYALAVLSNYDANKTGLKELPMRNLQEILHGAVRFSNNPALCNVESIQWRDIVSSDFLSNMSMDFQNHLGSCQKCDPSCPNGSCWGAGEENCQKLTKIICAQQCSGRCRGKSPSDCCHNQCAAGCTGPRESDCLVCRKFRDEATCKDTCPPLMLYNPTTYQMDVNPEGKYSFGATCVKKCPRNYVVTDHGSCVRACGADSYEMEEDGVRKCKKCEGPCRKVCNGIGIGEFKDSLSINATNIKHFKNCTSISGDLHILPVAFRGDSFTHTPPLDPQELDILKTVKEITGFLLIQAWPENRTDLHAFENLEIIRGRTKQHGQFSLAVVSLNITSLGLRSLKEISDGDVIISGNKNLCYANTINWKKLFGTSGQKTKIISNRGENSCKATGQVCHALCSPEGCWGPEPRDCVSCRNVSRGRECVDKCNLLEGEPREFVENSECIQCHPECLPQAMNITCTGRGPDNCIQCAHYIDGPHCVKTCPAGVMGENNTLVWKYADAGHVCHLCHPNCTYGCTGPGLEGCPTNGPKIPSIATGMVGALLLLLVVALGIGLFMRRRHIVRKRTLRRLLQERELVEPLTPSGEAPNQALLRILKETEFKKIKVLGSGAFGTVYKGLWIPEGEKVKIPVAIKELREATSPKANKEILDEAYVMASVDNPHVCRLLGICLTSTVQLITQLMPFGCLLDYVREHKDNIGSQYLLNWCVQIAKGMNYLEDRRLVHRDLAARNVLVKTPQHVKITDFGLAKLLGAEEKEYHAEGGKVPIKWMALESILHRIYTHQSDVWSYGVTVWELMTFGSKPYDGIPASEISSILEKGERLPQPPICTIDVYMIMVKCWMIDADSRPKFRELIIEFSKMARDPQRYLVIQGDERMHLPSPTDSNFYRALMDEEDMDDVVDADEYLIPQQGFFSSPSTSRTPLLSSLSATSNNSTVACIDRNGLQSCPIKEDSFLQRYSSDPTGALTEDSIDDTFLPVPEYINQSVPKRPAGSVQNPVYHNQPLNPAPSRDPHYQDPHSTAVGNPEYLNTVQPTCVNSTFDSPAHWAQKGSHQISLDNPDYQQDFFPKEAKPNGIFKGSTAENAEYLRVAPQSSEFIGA

With `O=C(CCCCC1CCSS1)Nc1ccc2ncnc(Nc3cccc(Br)c3)c2c1` (stereo not drawn), the IC50 was > 3 µM in test [1] and 21.6 µM in the test on A-431 [2].
For the molecule `C=CC(=O)Nc1ccc2ncnc(Nc3cccc(Br)c3)c2c1`, in the test with A-431 [3], the outcome was inactive.
For `O=C(Nc1ccc2ncnc(Nc3cccc(Br)c3)c2c1)C1CCSS1` (stereo not drawn), the IC50 in test [1] came out at 0.06 µM; in the test on A-431 [2] it was 7.9 µM; in the test on A-431 [4], 9.23 µM; in the test with A-431 [5], 22.4 µM; in the test on A-431 [6], 28.1 µM. For the same molecule, in the test with A-431 [7], the Activity entry is “Dose-dependent effect”. Besides, in the test with A-431 [3], the result was inactive.
For `O=C(CC1CCSS1)Nc1ccc2ncnc(Nc3cccc(Br)c3)c2c1` (stereo not drawn), the half-maximal inhibitory concentration (IC50) in test [1] was > 3 µM; with A-431 [2], 13.7 µM.
With `COc1cc2ncnc(Nc3cccc(Br)c3)c2cc1OC`, in the test on A-431 [3], the outcome was inactive.
